Results reported in patent US20060258581A1, “Methods and composition for derepressions of IAP-inhibited caspase” (priority 2001, published 2006).
Where no end group is shown, it is not given here. [ ]: non-standard residue; d: D form. d2Nal = N[C@H](Cc1ccc2ccccc2c1)C(=O)O

Tests used:
XIAP-inhibited caspase-3 = target: T1, XIAP-inhibited caspase-3 (Homo sapiens, UniProt P98170); assay: IAP derepression assay: Ac-DEVD-AFC hydrolysis by caspase-3 in the presence of GST-XIAP; assay type: biochemical
T1 construct: in a caspase derepression assay using full length XIAP; made in house; host or cells: bacteria
T1 sequence (P98170 whole entry): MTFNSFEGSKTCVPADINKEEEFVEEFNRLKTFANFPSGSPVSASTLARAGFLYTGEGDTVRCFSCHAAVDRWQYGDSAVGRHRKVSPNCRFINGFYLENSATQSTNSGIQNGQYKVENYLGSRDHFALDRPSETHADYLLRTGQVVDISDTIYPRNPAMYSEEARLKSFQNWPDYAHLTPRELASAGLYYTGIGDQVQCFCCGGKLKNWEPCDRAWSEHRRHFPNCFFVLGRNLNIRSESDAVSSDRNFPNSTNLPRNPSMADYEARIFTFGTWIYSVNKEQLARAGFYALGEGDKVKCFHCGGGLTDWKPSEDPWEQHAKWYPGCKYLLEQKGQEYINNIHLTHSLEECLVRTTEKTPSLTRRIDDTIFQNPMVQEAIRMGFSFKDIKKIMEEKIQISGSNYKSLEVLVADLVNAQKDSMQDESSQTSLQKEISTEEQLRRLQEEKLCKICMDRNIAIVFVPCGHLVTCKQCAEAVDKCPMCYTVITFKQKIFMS
Experimental: The ratio of Vmax for hydrolysis of Ac-DEVD-AFC in the presence and absence of the candidate mixture was calculated and used to identify those that contain an agent that derepresses an IAP-inhibited caspase.
(§1) Each mixture was aliquoted in a 25 microliter volume and in duplicate to a well of a 96 well microtiter plate. […] Fluorescence of liberated AFC was immediately detected from each well for 30 minutes at 30 second intervals. The Vmax for hydrolysis of AC-DEVD-AFC from each well was measured using the softmax software package.

[1] = test system: NCI panel of 60 tumor cell lines; assay: NCI panel of 60 tumor cell lines, 48 hours, protein-based colorimetric assay; set-up: species or system human
Experimental: Selected polyphenylurea compounds were tested on the National Cancer Institute (NCI) panel of 60 tumor cell lines (see FIG. 28a and FIG. 29).

Jurkat leukemia cells = assay: Jurkat leukemia cell death, Annexin V/propidium iodide flow cytometry; assay type: cell-based; conditions: Homo sapiens, Jurkat, 20 h, 20 hours, read-out: % nonviable cells
Experimental: (§2) The following assay was used to test the ability of individual compounds from the TPI 1396 and TPI 1391 libraries to induce apoptosis of cultured tumor cell lines. Each of the compounds listed in Table IX was individually added to Jurkat leukemia cells (6.25×10^5 cells/mL) in RPMI containing 2.5% FBS at various concentrations for 20 hours. After incubation, cells were washed and stained with FITC-conjugated Annexin V antibody and propidium iodide (Biovision; Mountain View, Calif.). Cells were incubated for 20 minutes at room temperature in the dark and fluorescence was measured by flow cytometry (FACScan, Immunocytometry system; Becton-Dickinson; San Jose, Calif.). Cells staining positive for Annexin V were deemed non-viable.
(§3) The TPI I396-34 and TPI 1391-28 compounds were further tested as set forth below.

[2] = test system: chronic lymphocytic leukemia (CLL) B-cells; assay: Freshly isolated CLL B-cells from patients, annexin-V/propidium iodide; assay type: cell-based, human; conditions: 20-24 hours
Source text: (§4) Since many tumor and leukemia cell lines proliferate faster than normal cells, it was investigated whether the polyphenylurea compounds could induce apoptosis of non-replicating malignant cells. […] Thus, cell replication is not required for sensitivity to the disclosed poly-phenylurea compounds.

full length XIAP = full length XIAP (Homo sapiens, UniProt P98170); assay: Potency of IAP antagonists in vitro (Table VIII; caspase derepression / SMAC competition with full length XIAP)
full length XIAP, sequence (P98170 whole entry): as above

[3] = test system: acute myelogenous leukemia (AML) blasts; assay: Freshly isolated AML leukemic blasts from patients, annexin-V; assay type: cell-based, human; conditions: 20-24 hours
Source text: as §4

[4] = test system: caspase-3 and caspase-7 activity in Jurkat cells; assay: Caspase-3 and caspase-7 activity in whole Jurkat cells, cell permeable substrate; assay type: cell-based; conditions: 8 μM, 20 hours
[5] = test system: mouse embryo fibroblasts (MEFs) from XIAP -/- mice; assay: Mouse embryo fibroblasts from XIAP -/- and wild type mice, MTT assay; assay type: cell-based; conditions: non-transformed versus SV40 large T transformed MEFs
Experimental: Cells were either tested directly at low passage (FIGS. 38A and C) or after transformation by infection with a retrovirus encoding SV40 large T antigen (FIGS. 38B and D). […] Cell viability was measured by MTT assay, expressing data as a percentage relative to control, untreated cells. Data shown in FIG. 38A-D represent mean±standard deviation of triplicate determinations.

Smac-7 mer/XIAP-BIR2 = assay: Competition assay Smac-7 mer/XIAP-BIR2 IC-50 uM | AVG
caspase-3 = target: T2, caspase-3 (Homo sapiens, UniProt P42574); assay: Caspase assay without XIAP (candidate mixture and caspase 3 only); assay type: biochemical; conditions: TPI 1239 library, absence of XIAP
T2 construct: made in house; host or cells: bacteria
T2 sequence (P42574 29-175 limits assumed): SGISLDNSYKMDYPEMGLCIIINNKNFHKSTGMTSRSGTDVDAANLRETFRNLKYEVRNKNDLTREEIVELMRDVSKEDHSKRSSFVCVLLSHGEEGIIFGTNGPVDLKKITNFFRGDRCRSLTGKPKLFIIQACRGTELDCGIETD
T2 sequence (P42574 176-277 limits assumed): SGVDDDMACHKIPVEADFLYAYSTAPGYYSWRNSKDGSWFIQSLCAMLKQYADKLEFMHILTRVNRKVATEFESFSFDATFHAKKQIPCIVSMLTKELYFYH
Experimental: Caspase activity was assayed by release of 7-amino-4-trifluoromethyl-coumarin (AFC) from Ac-DEVD-AFC synthetic peptides using a Molecular Devices Spectromax 340 (see Zhou et al., J. Biol. Chem. 272:7797-7800 (1997)). […] The ratio of Vmax for hydrolysis of Ac-DEVD-AFC in the presence and absence of the candidate mixture was calculated and used to identify those that contain an agent that derepresses an IAP-inhibited caspase.
as §1, with “Screening of each mixture from the DCR390, TPI 1239 or TPI 1328 library, respectively, using the above described assay was carried out as follows. Each” for “Each”
Results of the screen for the DCR390 library are shown in Table I. Sets of mixtures having the same position fixed with different respective amino acids are arranged in 6 sections identified with the position number. […] The mixtures in each section are arranged in descending order according to apparent velocity in the second column.

[6] = Jurkat leukemia cell death, Annexin V/propidium iodide flow cytometry; assay type: cell-based; conditions: human, 20 hours, read-out: % nonviable cells
Experimental: as §2, §3

[7] = target: BIR3RING (XIAP fragment) (human) (UniProt P98170); assay: fluorescence polarization; 20 nM rhodamine-SMAC, BIR3RING titrated
BIR3RING (XIAP fragment) (human), sequence (P98170 243-497 limits assumed): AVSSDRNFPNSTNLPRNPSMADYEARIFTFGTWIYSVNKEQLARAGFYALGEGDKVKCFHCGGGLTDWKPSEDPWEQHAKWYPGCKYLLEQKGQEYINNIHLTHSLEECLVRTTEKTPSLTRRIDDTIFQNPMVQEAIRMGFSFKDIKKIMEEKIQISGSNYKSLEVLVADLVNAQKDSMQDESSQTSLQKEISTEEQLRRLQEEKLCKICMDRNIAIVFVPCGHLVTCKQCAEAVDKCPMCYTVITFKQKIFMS

[8] = target: GST-BIR2 (glutathione-S-transferase-BIR2 fusion protein of XIAP) (human) (UniProt P98170); assay: fluorescence polarization; 20 nM rhodamine-SMAC, GST-BIR2 0 to 495 nM
GST-BIR2 (glutathione-S-transferase-BIR2 fusion protein of XIAP) (human), sequence (P98170 124-240): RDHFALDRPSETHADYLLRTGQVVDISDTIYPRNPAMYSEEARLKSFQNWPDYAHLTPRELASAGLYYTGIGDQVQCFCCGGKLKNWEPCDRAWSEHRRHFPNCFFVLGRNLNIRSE

**Q.** What does the source list for `CCCC[C@@H](CN(C(=O)Nc1ccccc1)[C@@H](CNC(=O)Nc1ccccc1)CC1CCCCC1)N(CCc1ccc(O)cc1)C(=O)Nc1ccccc1` [TPI 1396-28]?
**A.** Activity* (relative caspase-3 activity: Vmax in the presence of compound / Vmax of controls having caspase-3 and XIAP) (XIAP-inhibited caspase-3; XIAP derepression assay): 1.3; activity in the caspase derepression assay using full length XIAP (XIAP-inhibited caspase-3; in words): inactive analog; average (mean) LD50 for the 60 cell lines [1]: > 70 µM; cytotoxicity at 1 µM (Jurkat leukemia cells; 1 μM): 13%; cytotoxicity at 10 µM (Jurkat leukemia cells; 10 μM): 13%; cytotoxicity at 25 µM (Jurkat leukemia cells; 25 μM): 14%; cytotoxicity at 50 µM (Jurkat leukemia cells; 50 μM): 13%; apoptosis induction [2]: did not induce apoptosis; EC50 (full length XIAP): > 134000 nM; apoptosis induction [3]: did not induce apoptosis; caspase activation in whole cells [4]: did not induce caspase activation

**Q.** For `COc1cccc2c1C(=O)c1c(O)c3c(c(O)c1C2=O)C[C@@](O)(C(C)=O)C[C@@H]3O[C@H]1C[C@H](N)[C@H](O)[C@H](C)O1` [daunorubicin], which “selectivity for transformed cells” value [5] is on record?
**A.** The value was “do not display selectivity for transformed cells”.

**Q.** With “(D-Trp)-(D-Trp)-(L-Trp)-(D-Nal) ([dW][dW]W[d2Nal]) [TPI 1332-24]” as the compound, how does the IC50 (Smac-7 mer/XIAP-BIR2) read?
**A.** The IC50 was 5000 ± 4800 nM.

**Q.** For “H-AVPIAQK-NH2 [SMAC, H-Ala-Val-Pro-Ile-Ala-Gln-Lys-NH2, reference compound]”, which “Vmax(mix + casp3 + XIAP) / Vmax(casp3 + XIAP)” value (XIAP-inhibited caspase-3; TPI 1239 library) is on record?
**A.** Its value is 3.8 ± 1.7.

**Q.** And the “Vmax(mix + casp3) / Vmax(casp3)” value (caspase-3)?
**A.** The value was 0.8 ± 0.0.

**Q.** And the cytotoxicity at 20 hours, 5 µM ([6]; 5 μM)?
**A.** Its cytotoxicity at 20 hours, 5 µM is 12%.

**Q.** And the cytotoxicity at 20 hours, 25 µM ([6]; 25 μM)?
**A.** Its cytotoxicity at 20 hours, 25 µM is 16%.

**Q.** What about the cytotoxicity at 20 hours, 50 µM ([6]; 50 μM) of the same compound?
**A.** The cytotoxicity at 20 hours, 50 µM was about 16%.

**Q.** What about the cytotoxicity at 20 hours, 100 µM ([6]; 100 μM) of the same compound?
**A.** Its cytotoxicity at 20 hours, 100 µM is 15%.

**Q.** For “rhodamine labeled SMAC (rhodamine-SMAC) (peptide)”, which Kd [7] is on record?
**A.** Its Kd is 80 nM.

**Q.** And the Kd [8]?
**A.** The Kd was 100 nM.
